From US6664252B2, “4-aminopyrrolo[2,3-d]pyrimidine compounds specific to adenosine A2a receptor and uses thereof” (OSI Pharmaceuticals, Inc., priority 1999, dated 2003)

Columns and labels:
[1] = target: T1, human A1 adenosine receptor (Homo sapiens, UniProt P30542); conditions: reported value; cited from earlier work
T1 sequence (P30542 1-326): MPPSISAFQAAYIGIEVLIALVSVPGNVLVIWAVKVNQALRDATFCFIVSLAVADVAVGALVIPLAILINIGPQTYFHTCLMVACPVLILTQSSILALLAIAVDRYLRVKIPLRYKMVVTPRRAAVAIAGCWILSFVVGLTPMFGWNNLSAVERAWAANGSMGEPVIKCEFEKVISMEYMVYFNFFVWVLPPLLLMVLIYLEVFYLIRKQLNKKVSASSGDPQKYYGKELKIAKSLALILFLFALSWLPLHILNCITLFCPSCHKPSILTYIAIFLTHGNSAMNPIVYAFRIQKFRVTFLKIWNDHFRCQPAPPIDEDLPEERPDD

human adenosine A1 (A1R) = target: T2, human adenosine A1 (A1R) (Homo sapiens, UniProt P30542); experiment: Yeast β-Galactosidase reporter gene assay, inhibition of NECA-induced activity, strain CY12660; format: cell-based; conditions: Table 10
T2 construct: yeast alpha-factor (MFalpha1) prepro leader (N, cleaved yes); expressed in transfected cells; host or cells: Saccharomyces cerevisiae (strain CY12660 and related strains carrying plasmid p5095)
T2 sequence (P30542 1-326): T1 sequence (P30542 1-326)

[2] = target: T3, human A2b receptor subtype (Homo sapiens, UniProt P29275); experiment: Adenosine 2b receptor subtype competition radioligand binding, [3H]DPCPX, HEK293 membranes; conditions: for Ki: Table 14, read-out: Binding Data K1 (nM) A2B
T3 construct: expressed in transfected cells; host or cells: HEK293
T3 sequence (P29275 1-332): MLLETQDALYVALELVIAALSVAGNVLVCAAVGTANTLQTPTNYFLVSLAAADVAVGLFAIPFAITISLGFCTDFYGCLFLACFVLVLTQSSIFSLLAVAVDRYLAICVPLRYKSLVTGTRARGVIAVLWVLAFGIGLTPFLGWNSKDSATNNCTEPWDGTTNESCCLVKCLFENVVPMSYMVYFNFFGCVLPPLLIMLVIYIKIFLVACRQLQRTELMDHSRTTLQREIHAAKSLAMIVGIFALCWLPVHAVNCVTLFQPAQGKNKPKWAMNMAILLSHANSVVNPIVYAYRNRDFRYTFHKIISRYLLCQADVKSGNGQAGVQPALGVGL

[3] = target: T4, human A2a receptor subtype (Homo sapiens, UniProt P29274); experiment: Adenosine 2a receptor subtype competition radioligand binding, [3H]CGS-21680, HEK293 membranes; conditions: Table 13, in %; footnote 8: % activity @ 10 μM
T4 construct: expressed in transfected cells; host or cells: HEK-293 (Cadus clone #5)

[4] = target: T5, human A1 receptor subtype (Homo sapiens, UniProt P30542); conditions: Table 13, in %; footnote 8: % activity @ 10 μM
T5 sequence (P30542 1-326): T1 sequence (P30542 1-326)

[5] = target: T6, human A3 receptor subtype (Homo sapiens, UniProt P0DMS8); experiment: Adenosine 3 receptor competition radioligand binding, [125I]AB-MECA, HEK293 membranes; conditions: Table 14; read-out: Binding Data K1 (nM) A3
T6 construct: expressed in transfected cells; host or cells: HEK293
T6 sequence (P0DMS8 1-318): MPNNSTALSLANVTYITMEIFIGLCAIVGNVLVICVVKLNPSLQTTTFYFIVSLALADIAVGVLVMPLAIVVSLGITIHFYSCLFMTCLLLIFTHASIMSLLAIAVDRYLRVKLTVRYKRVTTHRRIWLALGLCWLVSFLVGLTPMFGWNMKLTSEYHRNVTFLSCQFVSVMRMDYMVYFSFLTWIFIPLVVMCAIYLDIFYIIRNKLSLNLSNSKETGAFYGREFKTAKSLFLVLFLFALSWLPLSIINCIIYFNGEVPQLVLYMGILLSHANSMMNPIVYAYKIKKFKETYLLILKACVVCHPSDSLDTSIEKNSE

T4 sequence (P29274 whole entry): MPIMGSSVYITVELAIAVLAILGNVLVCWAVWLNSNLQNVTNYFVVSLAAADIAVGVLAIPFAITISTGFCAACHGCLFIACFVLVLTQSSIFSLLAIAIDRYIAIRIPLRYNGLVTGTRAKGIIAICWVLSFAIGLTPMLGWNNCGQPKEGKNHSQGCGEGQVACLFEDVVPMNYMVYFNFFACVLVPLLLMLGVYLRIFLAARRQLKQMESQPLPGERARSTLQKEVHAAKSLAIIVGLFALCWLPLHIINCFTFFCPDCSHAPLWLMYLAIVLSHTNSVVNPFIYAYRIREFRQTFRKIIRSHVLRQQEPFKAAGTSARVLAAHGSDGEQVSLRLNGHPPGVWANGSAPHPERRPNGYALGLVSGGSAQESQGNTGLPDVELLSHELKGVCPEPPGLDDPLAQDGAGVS

In the case of `CC(Cc1ccccc1)Nc1ncnc2c1ncn2[C@@H]1O[C@H](CO)[C@@H](O)[C@H]1O` (single isomer, unassigned; (-)) [R-PIA, (−)-N6-(2-phenylisopropyl)-adenosine], the reported affinity [1] is listed as “approximately 50 nM”.

With `CC(=O)NCCNc1nc(-c2ccccc2)nc2[nH]c(COc3ccccc3)cc12` [(25), 4-(2-acetylaminoethyl)amino-6-phenoxymethyl-2-phenyl-7H-pyrrolo[2,3d]pyrimidine] the melting point was 196 to 197 °C.

`Cc1[nH]c2nc(-c3ccccc3)nc(NCCN)c2c1C` [Compound 1000] showed an IC50 (human adenosine A1 (A1R)) of over 10000 nM.

In the case of `Cc1[nH]c2nc(-c3ccccc3)nc(NCCNS(C)(=O)=O)c2c1C` [Compound 1007], the IC50 (human adenosine A1 (A1R)) is reported as over 10000 nM.

Work on `Cc1[nH]c2nc(-c3ccccc3)nc(NCCNC(=O)CCN)c2c1C` [Compound 1009] yielded an IC50 (human adenosine A1 (A1R)) of over 10000 nM.

For `Cc1[nH]c2nc(-c3ccccc3)nc(N[C@H]3CC[C@H](O)CC3)c2c1C` [Compound 1305], the “% activity, A2b binding” value ([2]; Table 13, in %, footnote 8: % activity @ 10 μM) was 30%.

For `CNC(=O)NCCCNc1nc(-c2ccccc2)nc2[nH]c(C)c(C)c12` [Compound 1310], the “% activity, A2a binding” value [3] was 76%.

With `Cc1[nH]c2nc(-c3ccccc3)nc(NCCNC(=O)C3(N)CC3)c2c1C` [Compound 1313] the “% activity, A1 binding” value [4] was 30% and the “% activity, A2a binding” value [3] was 65%.

In the case of `CC(=O)NCCNc1nc(-c2ccccc2)nc2[nH]c(COc3ccccc3)cc12` [Compound 1400, 4-(2-acetylaminoethyl)amino-6-phenoxymethyl-2-phenyl-7H-pyrrolo[2,3d]pyrimidine], the Ki [2] is reported as 10.3 nM.

Work on `CC(=O)NCCNc1nc(-c2ccccc2)nc2[nH]c(COc3ccc(F)cc3)cc12` [Compound 1401, 4-(2-acetylaminoethyl)amino-6-(4-fluorophenoxy)methyl-2-phenyl-7H-pyrrolo[2,3d]pyrimidine] yielded a Ki [2] of 8.8 nM.

`CC(=O)NCCNc1nc(-c2ccccc2)nc2[nH]c(COc3ccc(Cl)cc3)cc12` [Compound 1402, 4-(2-acetylaminoethyl)amino-6-(4-chlorophenoxy)methyl-2-phenyl-7H-pyrrolo[2,3d]pyrimidine] gave a Ki [5] of 60 nM.

In the case of `OC[C@H]1CCCN1c1nc(-c2ccncc2)nc2[nH]ccc12` [Compound 1601], the melting point is reported as 210 to 220 °C (dec.).

For `NC(=O)[C@H]1CCCN1c1nc(-c2ccncc2)nc2[nH]c(-c3ccccc3)cc12` [Compound 1609, 1-(6-Phenyl-2-pyridin-4-yl-7H-pyrrolo[2,3-d]pyrimidin-4-yl]-pyrrolidine-2-carboxylic acid amide], the melting point was 280 to 316 °C (dec.).
